In patent US20090105293A1, “USE OF THIENOPYRIDONE DERIVATIVES AS AMPK ACTIVATORS AND PHARMACEUTICAL COMPOSITIONS CONTAINING THEM” (priority 2005, published 2009):

Tests used:
ob/ob and db/db mice = settings: 8 day administration; both ob/ob and db/db mice; cited from earlier work
[1] = test system: Human recombinant AMPK enzyme; assay: AMPK screening assay, AlphaScreen technology; format: biochemical; settings: 25 mM Tris/HCl buffer pH 7.5, 100 μM ATP, AMARAA peptide substrate, 30 min room temperature, activator concentration not given
Experimental: (§1) Human recombinant AMPK enzyme was expressed in E. Coli and was reactivated in vitro by LKB1 prior to enzyme activity determination.
(§2) AMPK enzyme activities were assayed by using 2 fluorescent based technologies (AlphaScreen/Delfia) and were carried out in microtiter plates (containing 25 mM Tris/HCl buffer, pH 7.5 with 100 μM ATP/50 mM Hepes buffer, pH 7.4 with 125 μM ATP respectively) in the presence of a synthetic peptide substrate (AMARAASAAALARRR, the “AMARAA” peptide) and activators in serial dilutions. Reactions were initiated by the addition of AMPK (50-100 ng). Following mixing, the plates were incubated for 30 min at room temperature. Enzyme activity was assayed by using an anti-phosphoserine antibody to measure the quantity of phosphate incorporated into the AMARAA. Activity is expressed in % of control (basal activity): […]

[2] = test system: Human recombinant AMPK enzyme; assay: AMPK screening assay, Delfia technology; format: biochemical; settings: 50 mM Hepes buffer pH 7.4, 125 μM ATP, AMARAA peptide substrate, 30 min room temperature, activator concentration not given
Experimental: as §1, §2

Row | α-Screen: AMPK activity expressed in % of control (basal activity) [1] | Delfia: AMPK activity expressed in % of control (basal activity) [2] | Compound | reduction of blood glucose (ob/ob and db/db mice) [%]
1 |  |  | NC(=O)c1ncn([C@@H]2O[C@H](CO)[C@@H](O)[C@H]2O)c1N [AICAR] | 35
2 | 154 % of control | 232 % of control | Cc1sc2[nH]c(=O)c(-c3ccccc3)c(O)c2c1C [Compound 200, 4-Hydroxy-2,3-dimethyl-5-phenyl-7H-thieno[2,3-b]pyridin-6-one] | 
3 | 150 % of control | 219 % of control | CCc1cc2c(O)c(-c3ccccc3)c(=O)[nH]c2s1 [Compound 201, 2-Ethyl-4-hydroxy-5-phenyl-7H-thieno[2,3-b]pyridin-6-one] | 
4 | 322 % of control | 313 % of control | Cc1c(Br)sc2[nH]c(=O)c(-c3ccccc3)c(O)c12 [Compound 202, 2-Bromo-4-hydroxy-3-methyl-5-phenyl-7H-thieno[2,3-b]pyridin-6-one] | 
5 | 286 % of control | 271 % of control | O=c1[nH]c2sc(Br)cc2c(O)c1-c1ccccc1 [Compound 203, 2-Bromo-4-hydroxy-5-phenyl-7H-thieno[2,3-b]pyridin-6-one] | 
6 | 181 % of control | 233 % of control | CC(C)c1c(Cl)sc2[nH]c(=O)c(-c3ccccc3)c(O)c12 [Compound 204, 2-Chloro-4-hydroxy-3-isopropyl-5-phenyl-7H-thieno[2,3-b]pyridin-6-one] | 
7 | 166 % of control | 151 % of control | O=c1[nH]c2sc(Cl)c(C3CC3)c2c(O)c1-c1cccc(Oc2ccccc2)c1 [Compound 205, 2-chloro-3-cyclopropyl-4-hydroxy-5-(3-phenoxy-phenyl)-7H-thieno[2,3-b]pyridine-6-one] | 
8 | 269 % of control | 164 % of control | CCC(C)c1c(Cl)sc2[nH]c(=O)c(-c3ccccc3)c(O)c12 (centres unmarked) [Compound 206] | 
9 | 131 % of control | 169 % of control | CC(C)c1csc2[nH]c(=O)c(-c3ccccc3)c(O)c12 [Compound 207, 4-Hydroxy-3-isopropyl-5-phenyl-7H-thieno[2,3-b]pyridin-6-one] | 
10 | 154 % of control | 163 % of control | O=c1[nH]c2scc(C3CC3)c2c(O)c1-c1ccccc1 [Compound 208, 3-Cyclopropyl-4-hydroxy-5-phenyl-7H-thieno[2,3-b]pyridin-6-one] | 
11 | 156 % of control | 201 % of control | CCC(C)c1csc2[nH]c(=O)c(-c3ccccc3)c(O)c12 (centres unmarked) [Compound 209] | 
12 | 176 % of control | 286 % of control | O=c1[nH]c2sc3c(c2c(O)c1-c1ccccc1)CCCC3 [Compound 210, 4-Hydroxy-3-phenyl-5,6,7,8-tetrahydro-1-benzothieno[2,3-b]pyridin-2(1H)-one] | 
